In paper PMC6661831, “Molecular docking, synthesis, kinetics study, structure–activity relationship and ADMET analysis of morin analogous as Helicobacter pylori urease inhibitors” (BMC Chemistry, 2019):
Converted amounts (≈) assume the structure as drawn. Read-outs that look alike come from different tables or passages of the source.

How the values were obtained:
[1] = test system: H. pylori bacterium (ATCC 43504, DSM 4867); assay: Anti-H. pylori activity, well diffusion technique; type: cell-based, Helicobacter pylori; details: 2500 µg per well, 24–48 h, 35 °C
Protocol: (§1) Compounds M2b and M2i which were found potent in urease inhibition and antioxidant activity as well as in terms of docking score were tested further against antibacterial efficiency against Helicobacter pylori ATCC 43504, DSM 4867 using AHA as a standard and DMSO as control. […] It could be concluded that compound M2i indicated excellent antibacterial action against H. Pylori, antioxidant and urease inhibitory activity.
(§2) Novel synthesized derivatives were investigated against H. pylori bacterium (ATCC 43504 DSM 4867, AHA as standard) for their antibacterial activity by using Well diffusion technique. The stock solution of compounds in DMSO (1000 μg/mL) were prepared. Cell suspension was prepared from culture grown on BHI broth. The cell suspensions of all the cultures were adjusted to 1–2 × 10^5cells/ml. Helicobacter pylori (100 µl) was inoculated by spread plate technique on agar plates (90 mm). Agar wells (5 mm) were made on H. pylori inoculated media and impregnated with 2500 µg of each sample and standard which were incubated @ 35 °C for 24–48 h with 5% CO2 and observed for zone of inhibition around the well. MIC was determined against Helicobacter pylori by micro broth dilution technique as per NCCLS method.

[2] = test system: H. pylori bacterium (ATCC 43504, DSM 4867); assay: MIC against Helicobacter pylori, micro broth dilution technique; type: cell-based; details: NCCLS method
Protocol: as §1, §2

[3] = DPPH radical scavenging (antioxidant) assay; details: DPPH 300 µM, 30 min, mean SEM
Excerpt: (§3) The novel synthesized Morin derivatives were examined for in- vitro urease inhibitory action by determining the ammonia concentration released during the reaction by indophenol technique as described by Weatherburn as well as for antioxidant nature by determining the ability of compounds to donate hydrogen and electrons using DPPH method.
DPPH method was adopted for measuring the antioxidant nature of the synthesized derivatives. According to this method synthesized compounds were allowed to react for 0.5 h. at 37 °C with stable free radical, 1, 1-diphenyl-2-picrylhydrazyl radical (DPPH). The DPPH was taken in a concentration of 300 µM. Decrease in value of absorption at […] was measured after the period of incubation using a microplate reader using ascorbic acid as a standard. Molecule which can donate a proton to DPPH and cause its reduction act as an antioxidant. Following reduction deep violet coloured DPPH solution changes to yellow depending upon the nature of antioxidant compound, which brings a measurable decrease in value of absorption at 517 nm. The proton or electron donating capacity of the derivative was estimated from the fading of deep purple colored methanolic solution of 1, 1-diphenylpicrylhydrazyl (DPPH). Incubation of mixture was done at room temperature for 30 min and measurements were done at 517 against blank. Calculation of percentage inhibition was done by following formula: I\% =AControl-ASample/AControl×100 where, Acontrol is control absorbance; Asample is test absorbance

Jack bean urease = molecular target: T1, Jack bean urease (Canavalia ensiformis, UniProt P07374); assay: biochemical
T1 construct: purchased Sigma Aldrich
T1 sequence (P07374 whole entry, looked up): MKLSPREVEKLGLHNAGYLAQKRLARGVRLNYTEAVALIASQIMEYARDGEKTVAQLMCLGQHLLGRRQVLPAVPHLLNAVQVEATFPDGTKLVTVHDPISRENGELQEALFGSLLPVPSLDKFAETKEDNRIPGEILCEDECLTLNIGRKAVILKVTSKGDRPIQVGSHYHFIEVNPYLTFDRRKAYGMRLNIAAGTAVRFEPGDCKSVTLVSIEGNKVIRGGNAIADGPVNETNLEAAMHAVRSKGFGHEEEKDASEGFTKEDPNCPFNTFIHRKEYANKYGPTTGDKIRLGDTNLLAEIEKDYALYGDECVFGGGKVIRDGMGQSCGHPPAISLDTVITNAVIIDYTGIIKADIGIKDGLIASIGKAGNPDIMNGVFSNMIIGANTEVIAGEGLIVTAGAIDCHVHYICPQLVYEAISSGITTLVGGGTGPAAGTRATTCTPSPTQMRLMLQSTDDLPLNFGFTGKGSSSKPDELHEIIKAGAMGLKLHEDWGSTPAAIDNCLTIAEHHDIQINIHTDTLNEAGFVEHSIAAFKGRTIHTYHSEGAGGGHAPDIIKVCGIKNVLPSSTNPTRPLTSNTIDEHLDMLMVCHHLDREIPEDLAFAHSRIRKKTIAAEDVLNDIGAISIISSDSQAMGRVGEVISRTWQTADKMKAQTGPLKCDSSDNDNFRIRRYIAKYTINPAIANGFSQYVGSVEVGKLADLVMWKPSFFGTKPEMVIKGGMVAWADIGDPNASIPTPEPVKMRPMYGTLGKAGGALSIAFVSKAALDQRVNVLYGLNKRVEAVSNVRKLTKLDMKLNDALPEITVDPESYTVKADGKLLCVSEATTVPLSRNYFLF
Excerpt: as §3
Urease enzyme inhibition investigation studies for all synthesized compounds were done by the method developed by Weatherburn named Indophenol against Jack Bean Urease. Briefly, incubation of solution of Jack bean protein 25 μL was done at temperature of 30 °C for a period of 15 min with 55 μL of buffers solution having 100 mM urea and 5 μL of test solution in 96-well plates. 45 μL phenol solution composing phenol 1% w/v and solution of sodium nitroprusside 0.005% w/v and alkali reagent 70 μL composed of sodium hydroxide 0.5% w/v and active sodium hypochloride solution 0.1% were mixed to every well. The measurement of increase in absorption at 625 nm was done after 50 min by help of a microplate reader (Molecular Device, USA). Readings were recorded in triplicate set in a final volume of 200 μL using thiourea as standard. Each assay was performed at pH 8.2 (0.01 M K2HPO4.3H2O, 0.01 M […] and 1 mM EDTA). Calculation of Inhibition in percentage of synthesized derivatives was done by the formula given as: I\% =AControl-ASample/AControl×100 where, Acontrol is control absorbance; Asample is test absorbance

[4] = read-out: IC50 urease inhibition, Jack bean urease, indophenol method, pH 8.2, mean SEM

CC(=O)NO [AHA, acetohydroxamic acid]
zone of inhibition [1]: 9.00 ± 0.50 mm | MIC [2]: 1000 µg/mL (≈ 13.3 mM)

O=C1O[C@H]([C@@H](O)CO)C(O)=C1O [Ascorbic acid, reference compound]
IC50 [3]: 8.59 ± 0.004 µM

Oc1ccc(-c2oc3cc(O)cc(O)c3c(=NC(=S)Nc3ccccc3)c2O)c(O)c1 [Compound M2a, N-((4E)-2-(2,4-dihydroxyphenyl)-3,5,7-trihydroxy-4H-chromen-4-ylidene)-N-phenylthiourea]
IC50 (Jack bean urease): 12.71 ± 0.027 µM | IC50 [3]: 7.795 ± 0.003 µM

Oc1ccc(-c2oc3cc(O)cc(O)c3c(=NC(=S)Nc3ccccc3Cl)c2O)c(O)c1 [Compound M2b, N-(2-chlorophenyl)-N-((4E)-2-(2,4-dihydroxyphenyl)-3,5,7-trihydroxy-4H-chromen-4-ylidene)thiourea]
IC50 [3]: 7.37 ± 0.024 µM

O=[N+]([O-])c1ccccc1NC(=S)N=c1c(O)c(-c2ccc(O)cc2O)oc2cc(O)cc(O)c12 [Compound M2c, N-((4E)-2-(2,4-dihydroxyphenyl)-3,5,7-trihydroxy-4H-chromen-4-ylidene)-N-(2-nitrophenyl)thiourea]
IC50 (Jack bean urease; [4]): 19.5 ± 0.005 µM | IC50 [3]: 10.18 ± 0.006 µM

O=[N+]([O-])c1cccc(NC(=S)N=c2c(O)c(-c3ccc(O)cc3O)oc3cc(O)cc(O)c23)c1 [Compound M2d, N-((4E)-2-(2,4-dihydroxyphenyl)-3,5,7-trihydroxy-4H-chromen-4-ylidene)-N-(3-nitrophenyl)thiourea]
IC50 (Jack bean urease; [4]): 20.41 ± 0.031 µM | IC50 [3]: 11.56 ± 0.013 µM

O=[N+]([O-])c1ccc(NC(=S)N=c2c(O)c(-c3ccc(O)cc3O)oc3cc(O)cc(O)c23)cc1 [Compound M2e, N-((4E)-2-(2,4-dihydroxyphenyl)-3,5,7-trihydroxy-4H-chromen-4-ylidene)-N-(4-nitrophenyl)thiourea]
IC50 (Jack bean urease; [4]): 20.2 ± 0.01 µM | IC50 [3]: 8.744 ± 0.008 µM

NC(=S)N/N=c1\c(O)c(-c2ccc(O)cc2O)oc2cc(O)cc(O)c12 [Compound M3, (1Z)-1-(3,5,7-trihydroxy-2-(2,4-dihydroxyphenyl)-4H-chromen-4-ylidene)thiosemicarbazide]
IC50 (Jack bean urease): 17.9 ± 0.007 µM | IC50 [3]: 11.9 ± 0.031 µM

Oc1ccc(-c2oc3cc(O)cc(O)c3/c(=N/C(=S)NNc3ccccc3)c2O)c(O)c1 [Compound M4, (4Z)-4-(3,5,7-trihydroxy-2-(2,4-dihydroxyphenyl)-4H-chromen-4-ylidene)-1-phenylthiosemicarbazide]
IC50 (Jack bean urease): 18.96 ± 0.011 µM | IC50 [3]: 8.099 ± 0.018 µM

Oc1ccc(-c2oc3cc(O)cc(O)c3/c(=N/Nc3ccccc3)c2O)c(O)c1 [Compound M5, (4Z)-2-(2,4-dihydroxyphenyl)-4-(2-phenylhydrazinylidene)-4H-chromene-3,5,7-triol]
IC50 (Jack bean urease): 17.68 ± 0.08 µM | IC50 [3]: 8.78 ± 0.008 µM

O=c1c(O)c(-c2ccc(O)cc2O)oc2cc(O)cc(O)c12 [Morin, 3,5,7, 2′, 4′-pentahydroxyflavone]
IC50 (Jack bean urease): 21.77 ± 0.016 µM | IC50 [3]: 12.83 ± 0.028 µM

NC(N)=S [Thiourea, reference compound]
IC50 (Jack bean urease; Jack bean urease, indophenol method, pH 8.2, mean SEM, read-out: IC50 urease inhibition): 22.8 ± 0.011 µM
